# Laboratory results taken from patent publication US10351613B2, “Polypeptide for inhibition of tumor” (G-Bio Pharma Tech Co., Ltd., priority 2015, dated 2019).
# Residues, ends and D or L forms follow the SMILES beside them.
# Key:
# [1] = system: Human Umbilical Vein Endothelial Cell (HUVEC); format: cell-based; conditions: for biological activity compared with P2: inhibition of HUVEC and HepG2; for Cell Survival (%) at a polypeptide concentration of 120 μM: 6 h
# Protocol: 20 cm umbilical cord adjacent to fetus was taken, cleaned by washing, ligated at both ends, placed into 150 ml preservation solutions for umbilical cord, and stored in a 4° C. refrigerator for digestion for 6 hours. The umbilical cord was inspected to remove the damaged portion. The umbilical vein was thoroughly cleaned by washing and then 10 ml collagenase solution was injected. Then the umbilical vein was transferred to a 37° C. incubator for digestion for 15 minutes. The umbilical cord was removed and the digested solution was recovered. The digested solution was washed by PBS and centrifuged. After centrifugation, the cells were culture by re-suspension.
# (§1) Inhibition of cell growth was detected by a MTT method, which is based on the principle that succinate dehydrogenase in the mitochondria of the live cells could reduce the exogenous MTT (3-(4,5-dimethyl-2-thiazolyl)-2,5-diphenyl-tetrazolium bromide) to a […] Formazan which is a blue-violet crystal, and precipitates in the cells, while the death cells could not reduce MTT. DMSO could dissolve Formazan in the cells. Absorbance value of the solution was determined at 490/570 nm by microplate reader, which could indirectly indicate the amount of the live cells. The amount of the crystal from MTT is proportional to the amount of the cells within a certain range of cell number. The supernate from the HUVEC or tumor cells in exponential phase was removed and the cells were washed by PBS once. 1 ml 0.25% trypsin (4° C.) was added for digestion at 37° C. for 2 min. Then the supernate was added for neutralization and the cells were dispersed to form a suspension and the suspension was centrifuged at 1000 rpm for 3 min. The supernate was removed and 5 ml culture mediums were added for resuspension. Cells were inoculated in a 48-well plate by 500 ul/well at the concentration of 3×10^4/ml and then incubated under 5% CO2, 37° C. for 24 hours. The supernate was removed and a culture medium containing polypeptide (Zn^2+ in the culture medium was present at the concentration of 17.39 μmol/L) was added for further incubation for 48 hours. Supernate in each well was carefully removed. The well was gently washed by PBS once in an amount of 450 μl/well. 450 μl MTT culture mediums were added into each well for further cultivation for 4 hours. The supernate was carefully discarded. DMSO was added in an amount of 450 μl/well and then the plate was placed in a shaking bed for oscillation for 10 min in dark. 150 μl supernates were transferred to a 96-well ELISA plate and absorbance value of each well was detected at 490 nm and 570 nm by the microplate reader.
# [2] = system: tumor cell HepG2; format: cell-based
# Protocol: as §1
Compound,biological activity compared with P2 [1],Cell Survival (%) at a polypeptide concentration of 120 μM [1] [%],further results
CC[C@H](C)[C@H](NC(=O)CNC(=O)[C@H](CCCNC(=N)N)NC(=O)[C@H](CCSC)NC(=O)CNC(=O)CNC(=O)[C@H](CO)NC(=O)[C@H](CC(C)C)NC(=O)[C@H](CC(N)=O)NC(=O)[C@H](CO)NC(=O)[C@H](CC(N)=O)NC(=O)[C@H](CC(C)C)NC(=O)[C@H](C)NC(=O)[C@@H](NC(=O)[C@H](CC(C)C)NC(=O)[C@H](Cc1c[nH]cn1)NC(=O)[C@H](CC(C)C)NC(=O)[C@@H](NC(=O)[C@@H]1CCCN1C(=O)[C@H](CCC(N)=O)NC(=O)[C@H](Cc1ccccc1)NC(=O)[C@H](CC(=O)O)NC(=O)[C@H](CCCNC(=N)N)NC(=O)[C@H](Cc1c[nH]cn1)NC(=O)[C@H](CO)NC(=O)[C@H](Cc1c[nH]cn1)NC(C)=O)C(C)C)C(C)C)C(=O)N[C@@H](CCCNC(=N)N)C(=O)NCC(=O)N[C@@H](C)C(=O)N[C@@H](CC(=O)O)C(N)=O [Polypeptide P2N18] (Ac-HSHRDFQPVLHLVALNSNLSGGMRGIRGAD-NH2),lower biological activity than P2,–,"IC50 (ug/ml) HUVEC [1]: 1080.8 µg/mL; Cell Survival (%), 1 mg/ml of polypeptide, HUVEC [1]: 91%; IC50 (ug/ml) HepG2 [2]: 1387.0 µg/mL; Cell Survival (%), 1 mg/ml of polypeptide, HepG2 [2]: 85%"
Ac-HTHRDFQPVLHLVALNSSLSGGMRGIRGADFQCFQQARAVGLAGT-NH2 [Polypeptide P2T2S18-45],–,80,–
CC[C@H](C)[C@H](NC(=O)CNC(=O)[C@H](CCCNC(=N)N)NC(=O)[C@H](CCSC)NC(=O)CNC(=O)CNC(=O)[C@H](CO)NC(=O)[C@H](CC(C)C)NC(=O)[C@H](CO)NC(=O)[C@H](CO)NC(=O)[C@H](CC(N)=O)NC(=O)[C@H](CC(C)C)NC(=O)[C@H](C)NC(=O)[C@@H](NC(=O)[C@H](CC(C)C)NC(=O)[C@H](Cc1c[nH]cn1)NC(=O)[C@H](CC(C)C)NC(=O)[C@@H](NC(=O)[C@@H]1CCCN1C(=O)[C@H](CCC(N)=O)NC(=O)[C@H](Cc1ccccc1)NC(=O)[C@H](CC(=O)O)NC(=O)[C@H](CCCNC(=N)N)NC(=O)[C@H](Cc1c[nH]cn1)NC(=O)[C@@H](NC(=O)[C@H](Cc1c[nH]cn1)NC(C)=O)[C@@H](C)O)C(C)C)C(C)C)C(=O)N[C@@H](CCCNC(=N)N)C(=O)NCC(=O)N[C@@H](C)C(=O)N[C@@H](CC(=O)O)C(=O)N[C@@H](Cc1ccccc1)C(=O)N[C@@H](CCC(N)=O)C(=O)N[C@@H](CS)C(=O)N[C@@H](Cc1ccccc1)C(=O)N[C@@H](CCC(N)=O)C(N)=O [Polypeptide P2T2S18-35] (Ac-HTHRDFQPVLHLVALNSSLSGGMRGIRGADFQCFQ-NH2),–,15,–
Ac-HTHRDFQPVLHLVALNSSLSGGMRGIRGA-NH2 [Polypeptide P2T2S18-29],siginficalty higher than P2,–,–
CC[C@H](C)[C@H](NC(=O)CNC(=O)[C@H](CCCNC(=N)N)NC(=O)[C@H](CCSC)NC(=O)CNC(=O)CNC(=O)[C@H](CO)NC(=O)[C@H](CC(C)C)NC(=O)[C@H](CO)NC(=O)[C@H](CO)NC(=O)[C@H](CC(N)=O)NC(=O)[C@H](CC(C)C)NC(=O)[C@H](C)NC(=O)[C@@H](NC(=O)[C@H](CC(C)C)NC(=O)[C@H](Cc1c[nH]cn1)NC(=O)[C@H](CC(C)C)NC(=O)[C@@H](NC(=O)[C@@H]1CCCN1C(=O)[C@H](CCC(N)=O)NC(=O)[C@H](Cc1ccccc1)NC(=O)[C@H](CC(=O)O)NC(=O)[C@H](CCCNC(=N)N)NC(=O)[C@H](Cc1c[nH]cn1)NC(=O)[C@H](CO)NC(=O)[C@H](Cc1c[nH]cn1)NC(C)=O)C(C)C)C(C)C)C(=O)N[C@@H](CCCNC(=N)N)C(=O)NCC(=O)N[C@@H](C)C(=O)N[C@@H](CC(=O)O)C(N)=O [Polypeptide P2S18] (Ac-HSHRDFQPVLHLVALNSSLSGGMRGIRGAD-NH2),lower biological activity than P2,–,"Cell Survival (%), 1 mg/ml of polypeptide, HUVEC [1]: 73%; Cell Survival (%), 1 mg/ml of polypeptide, HepG2 [2]: 70%"
CC[C@H](C)[C@H](NC(=O)CNC(=O)[C@H](CCCNC(=N)N)NC(=O)[C@H](CCSC)NC(=O)CNC(=O)CNC(=O)[C@H](CO)NC(=O)[C@H](CC(C)C)NC(=O)[C@H](CO)NC(=O)[C@H](CO)NC(=O)[C@H](CC(N)=O)NC(=O)[C@H](CC(C)C)NC(=O)[C@H](C)NC(=O)[C@@H](NC(=O)[C@H](CC(C)C)NC(=O)[C@H](Cc1c[nH]cn1)NC(=O)[C@H](CC(C)C)NC(=O)[C@@H](NC(=O)[C@@H]1CCCN1C(=O)[C@H](CCC(N)=O)NC(=O)[C@H](Cc1ccccc1)NC(=O)[C@H](CC(=O)O)NC(=O)[C@H](CCCNC(=N)N)NC(=O)[C@H](Cc1c[nH]cn1)NC(=O)[C@@H](NC(=O)[C@H](Cc1c[nH]cn1)NC(C)=O)[C@@H](C)O)C(C)C)C(C)C)C(=O)N[C@@H](CCCNC(=N)N)C(=O)NCC(=O)N[C@@H](C)C(=O)N[C@@H](CC(=O)O)C(=O)N[C@@H](Cc1ccccc1)C(=O)N[C@@H](CCC(N)=O)C(=O)N[C@@H](CS)C(=O)N[C@@H](Cc1ccccc1)C(=O)N[C@@H](CCC(N)=O)C(=O)N[C@@H](CCC(N)=O)C(=O)N[C@@H](C)C(=O)N[C@@H](CCCNC(=N)N)C(=O)N[C@@H](C)C(=O)N[C@H](C(N)=O)C(C)C [Polypeptide P2T2S18-40] (Ac-HTHRDFQPVLHLVALNSSLSGGMRGIRGADFQCFQQARAV-NH2),–,49,–
"CC(=O)N[C@@H](Cc1c[nH]cn1)C(=O)N[C@H](C(=O)N[C@@H](Cc1c[nH]cn1)C(=O)N[C@@H](CCCNC(=N)N)C(=O)N[C@@H](CC(=O)O)C(=O)N[C@@H](Cc1ccccc1)C(=O)N[C@@H](CCC(N)=O)C(=O)N1CCC[C@H]1C(=O)N[C@H](C(=O)N[C@@H](CC(C)C)C(=O)N[C@@H](Cc1c[nH]cn1)C(=O)N[C@@H](CC(C)C)C(=O)N[C@H](C(=O)N[C@@H](C)C(=O)N[C@@H](CC(C)C)C(N)=O)C(C)C)C(C)C)[C@@H](C)O [Polypeptide P2T2-15, Ac-HTHRDFQPVLHLVAL-NH2] (Ac-HTHRDFQPVLHLVAL-NH2)",–,95,–
CSCC[C@H](NC(=O)CNC(=O)CNC(=O)[C@H](CO)NC(=O)[C@H](CC(C)C)NC(=O)[C@H](CO)NC(=O)[C@H](CO)NC(=O)[C@H](CC(N)=O)NC(=O)[C@H](CC(C)C)NC(=O)[C@H](C)NC(=O)[C@@H](NC(=O)[C@H](CC(C)C)NC(=O)[C@H](Cc1c[nH]cn1)NC(=O)[C@H](CC(C)C)NC(=O)[C@@H](NC(=O)[C@@H]1CCCN1C(=O)[C@H](CCC(N)=O)NC(=O)[C@H](Cc1ccccc1)NC(=O)[C@H](CC(=O)O)NC(=O)[C@H](CCCNC(=N)N)NC(=O)[C@H](Cc1c[nH]cn1)NC(=O)[C@@H](NC(=O)[C@H](Cc1c[nH]cn1)NC(C)=O)[C@@H](C)O)C(C)C)C(C)C)C(=O)N[C@@H](CCCNC(=N)N)C(=O)NCC(N)=O [Polypeptide P2T2S18-25] (Ac-HTHRDFQPVLHLVALNSSLSGGMRG-NH2),–,31,–
CC(=O)N[C@@H](Cc1c[nH]cn1)C(=O)N[C@H](C(=O)N[C@@H](Cc1c[nH]cn1)C(=O)N[C@@H](CCCNC(=N)N)C(=O)N[C@@H](CC(=O)O)C(=O)N[C@@H](Cc1ccccc1)C(=O)N[C@@H](CCC(N)=O)C(=O)N1CCC[C@H]1C(=O)N[C@H](C(=O)N[C@@H](CC(C)C)C(=O)N[C@@H](Cc1c[nH]cn1)C(=O)N[C@@H](CC(C)C)C(=O)N[C@H](C(=O)N[C@@H](C)C(=O)N[C@@H](CC(C)C)C(=O)N[C@@H](CC(N)=O)C(=O)N[C@@H](CO)C(=O)N[C@@H](CO)C(=O)N[C@@H](CC(C)C)C(=O)N[C@@H](CO)C(N)=O)C(C)C)C(C)C)[C@@H](C)O [Polypeptide P2T2S18-20] (Ac-HTHRDFQPVLHLVALNSSLS-NH2),–,52,–
